Laboratory results: the NIST ThermoML archive (doi:10.1016/j.fluid.2010.03.010)
Where “and” joins values, the source holds several entries; their conditions need not be identical. Equal values may be shown once.

Experiment: xn = mol fraction of the nth substance listed
Conditions: 298.03 K, 101.3 kPa, Liquid, Taylor dispersion method

Row | binary diffusion coefficient (x1 = 0) | Structure (SMILES) | binary diffusion coefficient (x2 = 0)
1 |  | CCCC[n+]1ccn(C)c1.O=S(=O)([N-]S(=O)(=O)C(F)(F)F)C(F)(F)F + O | 4e-08 m2/s [middle of 4 runs]
2 |  | CCCCn1cc[n+](C)c1.N#CN=C=[N-] [1-butyl-3-methylimidazolium dicyanamide] + O | 2.08e-08 m2/s and 2.13e-08 m2/s and 2.11e-08 m2/s and 2.03e-08 m2/s and 1.98e-08 m2/s and 2.05e-08 m2/s and 2e-08 m2/s and 2.28e-08 m2/s
3 | 9.62e-08 m2/s and 9.15e-08 m2/s and 9.84e-08 m2/s and 9.79e-08 m2/s | CCOS(=O)(=O)[O-].CCn1cc[n+](C)c1 [1-ethyl-3-methylimidazolium ethyl sulfate] + O | 
